Experimental data published in patent US20250328351A1, “CARBONIC ANHYDRASE INHIBITORS AND ANTIBIOTICS AGAINST MULTIDRUG RESISTANT BACTERIA” (Purdue Research Foundation, priority 2018, published 2025).
Converted amounts (≈) assume the structure as drawn. Like-named read-outs stand apart in the source and are kept apart here. Blank lines part the entries; values can stand above or below the compound they belong to.

Columns and labels:
[1] = system: vancomycin-resistant E. faecium; assay: Mouse model of GI colonization by VRE; format: in vivo, C57BL/6 mice
Excerpt: Feasibility in vivo study: AZM reduces VRE load in the intestines and faeces. The promising feature, and the specific and potent antimicrobial activity of CAIs, prompted us to evaluate the in vivo efficacy of AZM in our established mouse model of GI colonization by enterococci with features that mimic the antibiotic-induced enterococcal expansion observed in humans (Mohammad, H. et al., Int J Antimicrob Agents 2018, 51, 897-904; Abdelkhalek, A, et al., PLoS One 2018, 13, e0199710). We tested AZM (two clinical doses 10 and 20 mg/kg) in female 12-week-old C57BL/6 mice (n=5 mice per group) that were sensitized with ampicillin ([…] in drinking water) for 7 days to reduce the microbiota present in the gastrointestinal tract and colonized with 10^8 CFU/mL of vancomycin-resistant E. faecium.
We thought that the rapid absorption of AZM from the gastrointestinal tract would limit their exposure time to VRE present in the gastrointestinal tract.
Mice were treated for 8 days with 10 mg/kg of drugs by oral gavage.

[2] = system: Enterococcus faecalis S613 HM-334; assay: MIC, broth microdilution (CLSI); format: cell-based; settings: Enterococcus faecalis
Description: (§1) The minimum inhibitory concentrations (MICs) of the compounds and control drugs were determined using the broth microdilution method, according to guidelines outlined by the Clinical and Laboratory Standards Institute (CLSI). Enterococci strains were grown aerobically overnight on tryptone soya agar plates at 37° C., afterwards a bacterial solution equivalent to 0.5 McFarland standard was prepared and diluted in tryptone soy broth (TSB) to achieve a bacterial concentration of about 5×10^5 CFU/mL and seeded in 96-well well plates. Compounds and control drugs were added in the first row of the 96-well plates and serially diluted along the plates. Plates were then incubated aerobically at 37° C. for 18-20 hours. MICs reported in Table 1 are the minimum concentration of the compounds/control drugs that could inhibit completely the visual growth of the bacteria.
(§2) The minimum inhibitory concentrations (MICs) of CAIs were tested against clinical isolates of vancomycin sensitive and vancomycin resistant Enterococci strains as per the guidelines provided by the Clinical and Laboratory Standards Institute (CLSI). The selected strains of Enterococci were streaked on Tryptic Soy Agar (TSA) plates and let grow for 24 hours at 37° C. Afterwards, a bacterial solution equivalent to 0.5 McFarland standard was prepared and diluted in tryptone soy broth (TSB) or brain heart infusion broth (BHIB) to achieve a bacterial concentration of about 5×10^5 CFU/mL and seeded in 96-well well plates. Compounds and control drugs were added in the first row of the 96-well plates and serially diluted along the plates. Plates were then incubated aerobically at 37° C. for 18-20 hours. MICs reported in Table 5 are the minimum concentration of the compounds/control drugs that could inhibit completely the visual growth of the bacteria.
The minimum inhibitory concentrations (MICs) of CAIs were tested against vancomycin resistant Enterococcus faecalis—S613 HM 334 strain as per the guidelines provided by the Clinical and Laboratory Standards Institute (CLSI). The selected strain was streaked on Tryptic Soy Agar (TSA) plate and let grow for 24 hours at 37° C. […] Compounds and control drugs were added in the first row of the 96-well plates and serially diluted along the plates. Plates were then incubated aerobically at 37° C. for 18-20 hours. MICs reported in table (6) are the minimum concentration of the compounds/control drugs that could inhibit completely the visual growth of the bacteria.

[3] = system: Bacteroides fragilis CL07T00C01 HM-709; assay: MIC against human normal gut microbiota; format: cell-based
Description: (§3) Three different bacterial strains were used in this experiment; Bifidobacterium (anaerobic Gram positive bacteria), Bacteroides (anaerobic Gram negative bacteria) and Lactobacillus (microaerophilic Gram positive bacteria). Bifidobacterium and Bacteroides were first grown for 48 hours at 37° C., anaerobically using brain heart infusion supplemented (BHIS) agar (Brain heart infusion agar supplemented with hemin, vitamin K and L-cysteine). Lactobacillus was cultivated on MRS agar and incubated in presence of 5% CO2 for 48 hours at 37° C. Each bacterium was suspended in phosphate buffered saline (PBS) to produce a suspension with optical density that matches 0.5 McFarland standard and diluted in brain heart infusion supplemented broth (for Bifidobacterium and Bacteroides) or in MRS broth (for Lactobacillus) to achieve bacterial concentration of approximately 5×10^5 CFU/ml. Bacteria were then seeded in 96-well plates containing serial dilutions of the compounds and incubated as mentioned previously for 48 hours.

[4] = system: Bifidobacterium breve JCP7499 HM 1120; assay: MIC against human normal gut microbiota; format: cell-based
Description: as §3

[5] = system: Bacteroides dorei CL02T12C06 HM-719; assay: MIC against human normal gut microbiota; format: cell-based; settings: Phocaeicola dorei
Description: as §3

[6] = system: E. faecium NR 31909; settings: oral 20 mg/kg daily for 4 days
Excerpt: Saline was used as a negative control. Mice were euthanized on day 5 and organs (liver, spleen and kidneys) were aseptically removed and homogenized, and viable VRE were enumerated by serial dilution and plating.

[7] = system: gut microbiota; design: species or system C57BL/6 mice; settings: mouse, in vivo, po, 10 mg/kg
Description: CAIs had no major impact on microbiota composition. An extremely promising and innovative feature of CAIs is their narrow spectrum of activity and their ability to decolonize VRE without harming the microbiome. […] To characterize the impact of CAIs administration on the composition of the gut microbiota we performed the following assay6. Female 12-week-old C57BL/6 mice (n=5 mice per group) were exposed to CAIs by oral gavage for 10 days (10 mg/kg daily). Twenty-four hours after last dose, mice were euthanized and cecal and colon contents were harvested. The microbiome was characterized using 16S rDNA gene sequencing. The microbiotas from treated mice were compared to those from a group of control mice. […] However, at the phylum level, we observed decrease in Firmicutes in CAIs treatment groups and likely due to decrease of enterococci as enterococcus is a large genus of the phylum Firmicutes. The Verrucomicrobia and Bacteroidetes remain constant while other phyla increase to fill the remaining percentage from Firmicute loss. […] Indeed, the use of traditional antibiotics can increase the selective pressure and contribute to the selection of other multi-drug-resistant organisms (Kofteridis D. et al., Int J Infect Dis 2009, 13, e313-315).

[8] = system: Enterococcus fecalis Strain SF24413 NR31971; assay: MIC, broth microdilution (CLSI); format: cell-based; settings: Table 7; TSB
Description: as §1

[9] = system: Enterococcus fecalis Strain SF 28073 - NR31972; assay: MIC, broth microdilution (CLSI); format: cell-based; settings: Table 7; TSB
Description: as §1

[10] = system: Enterococcus faecium Patient #3-1 NR-31912; assay: MIC, broth microdilution (CLSI); format: cell-based; settings: Table 7; TSB
Description: as §1

[11] = system: Enterococcus fecalis Strain SF 24397 NR31970; assay: MIC, broth microdilution (CLSI); format: cell-based
Description: as §1, §2

[12] = system: Enterococcus fecalis Strain MMH594 - NR31975; assay: microbe, parasite or virus in culture; format: cell-based; settings: Table 7; TSB
Description: as §1

[13] = format: in vivo; settings: 200 mg/kg twice daily (400 mg/kg daily) for three days
[14] = S613HM334, Table 5, BHIB, read-out: MIC
[15] = S613HM334, Table 5, TSB, read-out: MIC
[16] = S613HM334, Table 6, TSB in presence of 4% human serum albumin, read-out: MIC
[17] = Table 3, BHIS broth, anaerobic, 48 hours, read-out: MIC

Compound: CC(=O)Nc1nnc(S(N)(=O)=O)s1 [Acetazolamide]
- VRE in feces, cecal content and ileal content compared to control mice ([1]; 10 mg/kg or 20 mg/kg once a day, feces as early as 3rd day): significant reduction
- VRE reduction compared with linezolid ([1]; AZM 10 and 20 mg/kg, linezolid 10 mg/kg once daily for 8 days): outperformed linezolid
- MIC ([2]; S613HM334, Table 1, TSB, read-out: MIC): 2 µg/mL (≈ 9 µM)
- MIC [2, 14]: > 128 µg/mL
- MIC [2, 15]: 2 µg/mL (≈ 9 µM)
- MIC [2, 16]: > 256 µg/mL
- MIC ([2]; S613HM334, Table 7, TSB, read-out: MIC): 2 µg/mL (≈ 9 µM)
- MIC [3, 17]: > 64 µg/mL
- MIC ([4]; JCP7499HM1120, Table 3, BHIS broth, anaerobic, 48 hours, read-out: MIC): > 64 µg/mL
- MIC [5, 17]: > 64 µg/mL
- mice protected against a lethal dose (survival) [6]: 100%
- reduction of bacterial load in internal organs compared with linezolid ([6]; liver, spleen, kidneys on day 5): superior to linezolid

- MIC [2, 14]: > 128 µg/mL
- MIC [2, 15]: 8 µg/mL (≈ 24.7 µM)
- MIC [2, 16]: > 256 µg/mL
- taxonomic structure and composition of microbiota [7]: no major shift or change
Compound: CCN[C@H]1C[C@H](C)S(=O)(=O)c2sc(S(N)(=O)=O)cc21 [Dorzolamide]

Compound: CN[C@H](CC(C)C)C(=O)N[C@H]1C(=O)N[C@@H](CC(N)=O)C(=O)N[C@H]2C(=O)N[C@H]3C(=O)N[C@H](C(=O)N[C@H](C(=O)O)c4cc(O)cc(O)c4-c4cc3ccc4O)[C@H](O)c3ccc(c(Cl)c3)Oc3cc2cc(c3O[C@@H]2O[C@H](CO)[C@@H](O)[C@H](O)[C@H]2O[C@H]2C[C@](C)(N)[C@H](O)[C@H](C)O2)Oc2ccc(cc2Cl)[C@H]1O [Vancomycin, reference compound]
- MIC [8]: 32 µg/mL (≈ 22.1 µM)
- MIC [9]: >64 µg/mL
- MIC [10]: >64 µg/mL
- MIC ([2]; S613HM334, Table 1, TSB): > 64 µg/mL
- MIC ([2]; S613HM334, Table 5, BHIB): > 128 µg/mL
- MIC ([2]; S613HM334, Table 5, TSB): > 128 µg/mL
- MIC ([2]; S613HM334, Table 7, TSB): > 64 µg/mL
- MIC ([11]; Table 5, BHIB): 2 µg/mL (≈ 1.38 µM)
- MIC ([11]; Table 5, TSB): 2 µg/mL (≈ 1.38 µM)
- MIC ([11]; Table 7, TSB): 2 µg/mL (≈ 1.38 µM)
- MIC ([3]; 48 h): 64 µg/mL (≈ 44.2 µM)
- MIC ([4]; JCP7499HM1120, 48 h): 8 µg/mL (≈ 5.52 µM)
- MIC ([5]; 48 h): 64 µg/mL (≈ 44.2 µM)
- MIC [12]: 2 µg/mL (≈ 1.38 µM)

Compound: NS(=O)(=O)c1nnc(NCc2ccccc2C(F)(F)F)s1 [analog 8]
- reduction of VRE in the feces, cecum and ileum compared with AZM and linezolid ([1]; 10 mg/kg oral gavage for 8 days, feces as early as 3rd day): superior to AZM and linezolid
- survival [13]: all the mice survived
